Tests used:
Type in all cases: physicochemical
[1] = RP-HPLC retention on Cosmosil Cholester column, buffer pH 7.4-acetonitrile; conditions: for log kw, Cholester: extrapolated to buffer pH 7.4 as mobile phase, 25 °C; for s Cholester: slope of Soczewiński-Wachtmeister equation, acetonitrile φ 0.4–0.6
Method: (§1) Retention parameters reported as the log k values were calculated by the expression:(1) logk=log(tR−t0)/t0 where tR and t0 are the retention times of the solute and a non-retained compound (citric acid), respectively. They were used to calculate the log kw values, i.e., logarithms of retention parameter in the buffer as the mobile phase. For this purpose the Soczewiński-Wachtmeister’s equation was used:log k = log kw − sφ(2) where φ is the volume fraction of organic modifier in the mobile phase; k and kw are retention parameters corresponding to mixed effluent and buffer as the mobile phase, respectively. The slope s is characteristic of a given solute and chromatographic system. Strong linear relationships between log k and φ values were found for all the compounds in the range of effluent composition examined (R^2 > 0.9). The log kw values determined for the ODS (log kw, ODS), IAM (log kw, IAM) and Cholester (log kw, Cholester) columns were intercorrelated and the following linear relationships with a very good statistical quality were obtained:log kw, ODS = 0.691(± 0.094) + 0.982(± 0.044) log kw, IAM(3) SD = 0.257; R^2 = 0.8880; N = 65 log kw, ODS = 0.911(± 0.062) + 0.765(± 0.025) log kw, Cholester(4) SD = 0.192; R^2 = 0.9371; N = 65 log kw, IAM = 0.356(± 0.073) + 0.721(± 0.029) log kw, Cholester(5) SD = 0.224; R^2 = 0.9068; N = 65
(§2) Shimadzu Vp (Shimadzu, Izabelin, Poland) liquid chromatographic system equipped with LC 10AT pump, SPD 10A UV-Vis detector, SCL 10A system controller, CTO-10 AS chromatographic oven and Rheodyne injector valve with a 20 µL loop was applied in HPLC measurements. Three stationary phases were employed: • Purosphere RP-18e (ODS), 125 × 4 mm i.d., 5 µm (Merck); • IAM.PC.DD2 100 × 4.6 mm i.d., 10 µm (Regis Chemicals Company, Morton Grove, IL, USA); • Cosmosil Cholester, 75 × 2 mm i.d., 2.5 µm (Genore, Warsaw, Poland).
(§3) As mobile phases buffer-acetonitrile mixtures were used. The buffer was prepared from 0.01 mol L^−1 solutions of Na2HPO4 and citric acid and the pH 7.4 value was fixed before mixing with organic modifier. With the ODS column acetonitrile concentration in the effluent, expressed as a volume fraction (φ, v/v), was changed in the range 0.3–0.6, with the constant step of 0.1. The flow rate was 1 mL min^−1. With the IAM column acetonitrile concentration was changed in the range 0.2–0.5, also with the constant step of 0.1 and the flow rate was 1.3 mL min^−1. With the Cosmosil Cholester column acetonitrile concentration was changed in the range 0.4–0.6, with the constant step of 0.05 and the flow rate was 0.4 mL min^−1. Samples of test compounds were dissolved in acetonitrile—c.a. 0.005 mg mL^−1. […] They were detected under UV light at 210 and 254 nm. All measurements were carried out at 25 °C. The dead time values were measured from non-retained compound (citric acid) peaks. All reported log kw values are the average of at least three independent measurements. The extrapolated retention coefficients (logs kw) achieved by HPLC on ODS, IAM and Cholester stationary phases were used for modelling the log BB permeation of 65 drug-like compounds employed as a whole test set (Table 1).

[2] = RP-HPLC retention on IAM.PC.DD2 (immobilized artificial membrane) column, buffer pH 7.4-acetonitrile; conditions: for log kw, IAM: extrapolated to buffer pH 7.4 as mobile phase, 25 °C; for s IAM: slope of Soczewiński-Wachtmeister equation, acetonitrile φ 0.2–0.5
Method: as §1, §2, §3

[3] = RP-HPLC retention on Purosphere RP-18e (ODS) column, buffer pH 7.4-acetonitrile; conditions: for log kw, ODS: extrapolated to buffer pH 7.4 as mobile phase, 25 °C; for s ODS: slope of Soczewiński-Wachtmeister equation, acetonitrile φ 0.3–0.6
Method: as §1, §2, §3

What does the source list for `O=c1c(Cc2cccc(Cl)c2)nnc2n1CCN2c1ccccc1` [Compound 43]?
log kw, Cholester [1]: 2.90; s Cholester [1]: 4.80; log kw, IAM [2]: 2.48; s IAM [2]: 5.18; log kw, ODS [3]: 3.59; s ODS [3]: 5.85

Which “log kw, Cholester” value [1] does the source give for `Cc1ccc(N2CCn3c2nnc(Cc2cccc(Cl)c2)c3=O)cc1` [Compound 49] here?
The value was 3.40.

What about the “s Cholester” value [1] of the same compound?
Its value is 5.33.

And the “log kw, IAM” value [2]?
The value was 2.78.

And the “s IAM” value [2]?
Its value is 5.50.

What about the “log kw, ODS” value [3] of the same compound?
The value was 3.31.

And the “s ODS” value [3]?
The value was 5.41.

For `O=c1c(-c2ccco2)nnc2n1CCN2c1ccc(Cl)cc1` [Compound 26], which “log kw, Cholester” value [1] is on record?
The value was 2.29.

What about the “s Cholester” value [1] of the same compound?
The value was 4.15.

What about the “log kw, IAM” value [2] of the same compound?
The value was 2.02.

And the “s IAM” value [2]?
Its value is 4.44.

And the “log kw, ODS” value [3]?
Its value is 2.65.

What about the “s ODS” value [3] of the same compound?
The value was 4.59.

Which results are given for `CCOC(=O)Cc1nnc2n(c1=O)CCN2c1ccc(OC)cc1` [Compound 14]?
log kw, Cholester [1]: 0.65; s Cholester [1]: 1.92; log kw, IAM [2]: 0.91; s IAM [2]: 2.58; log kw, ODS [3]: 1.37; s ODS [3]: 3.15

Which “log kw, Cholester” value [1] does the source give for `Cc1ccc(N2CCn3c2nnc(-c2ccco2)c3=O)cc1` [Compound 20] here?
The value was 2.03.

And the “s Cholester” value [1]?
The value was 3.68.

What about the “log kw, IAM” value [2] of the same compound?
The value was 1.69.

What about the “s IAM” value [2] of the same compound?
The value was 3.90.

And the “log kw, ODS” value [3]?
Its value is 2.43.

And the “s ODS” value [3]?
The value was 4.39.

For `O=c1c(Cc2ccc(Cl)cc2)nnc2n1CCN2c1ccc(Cl)cc1` [Compound 60], which “log kw, Cholester” value [1] is on record?
The value was 3.68.

And the “s Cholester” value [1]?
Its value is 5.82.

And the “log kw, IAM” value [2]?
The value was 3.17.

And the “s IAM” value [2]?
The value was 6.18.

What about the “log kw, ODS” value [3] of the same compound?
Its value is 4.02.

And the “s ODS” value [3]?
Its value is 6.45.

Which results are given for `Cc1cccc(N2CCn3c2nnc(-c2ccccc2)c3=O)c1` [Compound 31]?
log kw, Cholester [1]: 2.77; s Cholester [1]: 4.42; log kw, IAM [2]: 2.26; s IAM [2]: 4.68; log kw, ODS [3]: 2.93; s ODS [3]: 5.02

Which results are given for `O=c1c(Cc2ccccc2Cl)nnc2n1CCN2c1ccc(Cl)cc1` [Compound 58]?
log kw, Cholester [1]: 3.74; s Cholester [1]: 5.62; log kw, IAM [2]: 3.22; s IAM [2]: 6.32; log kw, ODS [3]: 3.55; s ODS [3]: 5.65

For `COc1ccccc1N1CCn2c1nnc(-c1ccccc1)c2=O` [Compound 33], which “log kw, Cholester” value [1] is on record?
Its value is 1.69.

And the “s Cholester” value [1]?
Its value is 2.94.

And the “log kw, IAM” value [2]?
The value was 1.47.

And the “s IAM” value [2]?
The value was 3.62.

And the “log kw, ODS” value [3]?
The value was 1.98.

What about the “s ODS” value [3] of the same compound?
Its value is 3.99.

For `Cc1cccc(N2CCn3c2nnc(-c2ccccc2)c3=O)c1C` [Compound 36], which “log kw, Cholester” value [1] is on record?
The value was 2.34.

And the “s Cholester” value [1]?
Its value is 3.60.

And the “log kw, IAM” value [2]?
Its value is 1.85.

What about the “s IAM” value [2] of the same compound?
Its value is 4.05.

And the “log kw, ODS” value [3]?
Its value is 2.74.

And the “s ODS” value [3]?
Its value is 4.85.

Which “log kw, Cholester” value [1] does the source give for `Cc1ccc(N2CCn3c2nnc(Cc2ccccc2Cl)c3=O)cc1` [Compound 48] here?
Its value is 3.24.

What about the “s Cholester” value [1] of the same compound?
Its value is 4.90.

What about the “log kw, IAM” value [2] of the same compound?
Its value is 2.65.

And the “s IAM” value [2]?
Its value is 5.21.

And the “log kw, ODS” value [3]?
Its value is 3.12.

And the “s ODS” value [3]?
The value was 5.11.

With `Cc1ccc(Cc2nnc3n(c2=O)CCN3c2ccc(C)cc2)cc1` [Compound 46] as the compound, how does the “log kw, Cholester” value [1] read?
The value was 3.15.

And the “s Cholester” value [1]?
Its value is 5.05.

And the “log kw, IAM” value [2]?
The value was 2.51.

And the “s IAM” value [2]?
The value was 5.22.

What about the “log kw, ODS” value [3] of the same compound?
Its value is 3.04.

What about the “s ODS” value [3] of the same compound?
The value was 5.30.

With `Cc1ccccc1N1CCn2c1nnc(Cc1ccccc1Cl)c2=O` [Compound 56] as the compound, how does the “log kw, Cholester” value [1] read?
The value was 2.34.

And the “s Cholester” value [1]?
Its value is 4.05.

What about the “log kw, IAM” value [2] of the same compound?
Its value is 2.02.

And the “s IAM” value [2]?
Its value is 4.31.

And the “log kw, ODS” value [3]?
The value was 3.01.

What about the “s ODS” value [3] of the same compound?
The value was 4.95.

For `CCOC(=O)Cc1nnc2n(c1=O)CCN2c1ccccc1` [Compound 12], which “log kw, Cholester” value [1] is on record?
Its value is 1.11.

And the “s Cholester” value [1]?
The value was 2.55.

And the “log kw, IAM” value [2]?
The value was 1.21.

What about the “s IAM” value [2] of the same compound?
The value was 3.11.

What about the “log kw, ODS” value [3] of the same compound?
Its value is 1.75.

What about the “s ODS” value [3] of the same compound?
Its value is 3.61.

What does the source list for `O=c1c(Cc2ccccc2)nnc2n1CCN2c1ccc(Cl)cc1` [Compound 57]?
log kw, Cholester [1]: 2.98; s Cholester [1]: 4.85; log kw, IAM [2]: 2.52; s IAM [2]: 5.06; log kw, ODS [3]: 3.11; s ODS [3]: 5.05

— article PMC7037052, “Predicting the Blood-Brain Barrier Permeability of New Drug-Like Compounds via HPLC with Various Stationary Phases” (Molecules, 2020)
